Data reported in patent US11912650B2, “Bakuchiol derivatives, pharmaceutically acceptable salts thereof, and preparation method and use of the same” (priority 2020, dated 2024).
≈ marks a conversion by molar mass, not a printed value. Like-named read-outs stand apart in the source and are kept apart here.

Assays:
MRSA NCTC10442 = assay: Antibacterial activity assay (broth dilution MIC); assay type: cell-based, methicillin-resistant Staphylococcus aureus; settings: Staphylococcus aureus, 37° C., 24 h, compounds 38, 44-45, 58-61, 63-64 with 0.05% Tween 80
Method: (§1) Antibacterial activity assay. The antibacterial activities of all the compounds were determined according to a broth dilution method specified in Clinical and Laboratory Standards Institute (CLSI) guidelines. Bacterial cells were inoculated on a Mueller-Hinton agar (MHA) plate for overnight culture, and the concentration of the bacterial cells was adjusted to about 1×10^6 colony-forming units (CFU)/mL with phosphate buffered saline (PBS). First, a 1000 μg/mL stock solution (a final concentration of dimethyl sulfoxide (DMSO) was ≤2%) was prepared by dissolving a sample in DMSO/H2O. Then, the stock solution was diluted with Mueller-Hinton Broth (MHB) to an initial concentration of 100 μg/mL, and the sample solution (100 μL) was subjected to two-fold gradient dilution with MHB in a 96-well plate, to obtain 100 μg/mL to 0.78 μg/mL serial dilutions. Then, a bacterial suspension (100 μL) was added to each well of the 96-well plate and mixed with the test sample solution (100 μL). Among them, test systems for compounds 38, 44-45, 58-61 and 63-64 contained 0.05% of Tween 80. Finally, the 96-well plate was incubated at 37° C. for 24 hours. Absorbances at 600 nm at 0 and 24 h were measured. An minimum inhibitory concentration (MIC) value was defined as the lowest concentration where no visible bacterial growth occurred. All experiments were carried out in at least two duplicates, and biological repeatability could be achieved.

MRSA N315 = assay: Antibacterial activity assay (broth dilution MIC); assay type: cell-based, methicillin-resistant Staphylococcus aureus; settings: Staphylococcus aureus, 37° C., 24 h, compounds 38, 44-45, 58-61, 63-64 with 0.05% Tween 80
Method: as §1

Gram-positive bacteria = assay: Antibacterial activity against Gram-positive bacteria (MIC summary); assay type: cell-based; settings: 24 h, read-out: minimum inhibitory concentration (MIC) against Gram-positive bacteria
Method: as §1

S. aureus ATCC29213 = assay: Antibacterial activity assay (broth dilution MIC); assay type: cell-based; settings: Staphylococcus aureus, 37° C., 24 h, compounds 38, 44-45, 58-61, 63-64 with 0.05% Tween 80
Method: as §1

E. coli ATCC25922 = assay: Antibacterial activity assay (broth dilution MIC); assay type: cell-based; settings: Escherichia coli, 37° C., 24 h, compounds 38, 44-45, 58-61, 63-64 with 0.05% Tween 80
Method: as §1

Gram-negative bacteria = assay: Antibacterial activity against Gram-negative bacteria (MIC summary); assay type: cell-based; settings: 24 h; summary of tables 1 and 2
Method: as §1

Row | Compound | MIC (MRSA NCTC10442) | MIC (MRSA N315) | MIC (Gram-positive bacteria) | MIC (S. aureus ATCC29213) | MIC (E. coli ATCC25922) | MIC (Gram-positive bacteria; summary of tables 1 and 2) | MIC (Gram-negative bacteria)
1 | C=C[C@@](C)(/C=C/c1ccc(OCCCCN(C)C)cc1)CCC=C(C)C [Compound 5] | 3.12 µg/mL (≈ 8.79 µM) | 1.56 µg/mL (≈ 4.39 µM) | 0.39 to 3.12 µg/mL (≈ 1.1 to 8.79 µM) | 1.56 µg/mL (≈ 4.39 µM) | > 50 µg/mL | – | –
2 | C=C[C@@](C)(/C=C/c1ccc(OCCCCN(CC)CC)cc1)CCC=C(C)C [Compound 6] | 3.12 µg/mL (≈ 8.15 µM) | 3.12 µg/mL (≈ 8.15 µM) | 0.39 to 3.12 µg/mL (≈ 1.02 to 8.15 µM) | 3.12 µg/mL (≈ 8.15 µM) | > 100 µg/mL | – | –
3 | C=C[C@@](C)(/C=C/c1ccc(OCCCN(C)C)cc1)CCC=C(C)C [Compound 8] | 6.25 µg/mL (≈ 18.3 µM) | 6.25 µg/mL (≈ 18.3 µM) | – | 6.25 µg/mL (≈ 18.3 µM) | > 100 µg/mL | – | –
4 | C=C[C@@](C)(/C=C/c1ccc(OCCCN(CC)CC)cc1)CCC=C(C)C [Compound 9] | 3.12 µg/mL (≈ 8.46 µM) | 3.12 µg/mL (≈ 8.46 µM) | 0.39 to 3.12 µg/mL (≈ 1.06 to 8.46 µM) | 3.12 µg/mL (≈ 8.46 µM) | > 100 µg/mL | – | –
5 | C=C[C@@](C)(/C=C/c1ccc(OCCCCCCCCN(CC)CC)cc1)CCC=C(C)C [Compound 11] | 1.56 µg/mL (≈ 3.55 µM) | 1.56 µg/mL (≈ 3.55 µM) | – | 3.12 µg/mL (≈ 7.11 µM) | > 100 µg/mL | 0.39 to 3.12 µg/mL (≈ 0.887 to 7.11 µM) | –
6 | C=C[C@@](C)(/C=C/c1ccc(OCCCCCCCCCCN(CC)CC)cc1)CCC=C(C)C [Compound 12] | 3.12 µg/mL (≈ 6.68 µM) | 3.12 µg/mL (≈ 6.68 µM) | – | 12.5 µg/mL (≈ 26.7 µM) | > 100 µg/mL | 0.39 to 3.12 µg/mL (≈ 0.834 to 6.68 µM) | –
7 | C=C[C@@](C)(/C=C/c1ccc(OCCCCN)cc1)CCC=C(C)C [Compound 13] | 1.56 µg/mL (≈ 4.76 µM) | 0.78 µg/mL (≈ 2.38 µM) | – | 1.56 µg/mL (≈ 4.76 µM) | 12.5 µg/mL (≈ 38.2 µM) | 0.39 to 3.12 µg/mL (≈ 1.19 to 9.54 µM) | –
8 | C=C[C@@](C)(/C=C/c1ccc(OCCCCNCC)cc1)CCC=C(C)C [Compound 14] | 1.56 µg/mL (≈ 4.39 µM) | 0.78 µg/mL (≈ 2.19 µM) | – | 1.56 µg/mL (≈ 4.39 µM) | 12.5 µg/mL (≈ 35.2 µM) | 0.39 to 3.12 µg/mL (≈ 1.1 to 8.79 µM) | –
9 | C=C[C@@](C)(/C=C/c1ccc(OCCCCNCCCC)cc1)CCC=C(C)C [Compound 15] | 1.56 µg/mL (≈ 4.07 µM) | 1.56 µg/mL (≈ 4.07 µM) | – | 1.56 µg/mL (≈ 4.07 µM) | 12.5 µg/mL (≈ 32.6 µM) | 0.39 to 3.12 µg/mL (≈ 1.02 to 8.15 µM) | –
10 | C=C[C@@](C)(/C=C/c1ccc(OCCCCNCCCCCC)cc1)CCC=C(C)C [Compound 16] | 1.56 µg/mL (≈ 3.79 µM) | 0.78 µg/mL (≈ 1.89 µM) | – | 1.56 µg/mL (≈ 3.79 µM) | 100 µg/mL (≈ 243 µM) | 0.39 to 3.12 µg/mL (≈ 0.947 to 7.59 µM) | –
11 | C=C[C@@](C)(/C=C/c1ccc(OCCCCNCCCCCCCC)cc1)CCC=C(C)C [Compound 17] | 3.12 µg/mL (≈ 7.11 µM) | 1.56 µg/mL (≈ 3.55 µM) | – | 6.25 µg/mL (≈ 14.2 µM) | > 100 µg/mL | – | –
12 | C=C[C@@](C)(/C=C/c1ccc(OCCCCNCCCCCCCCCC)cc1)CCC=C(C)C [Compound 18] | 50 µg/mL (≈ 107 µM) | 12.5 µg/mL (≈ 26.7 µM) | – | 50 µg/mL (≈ 107 µM) | > 100 µg/mL | – | –
13 | C=C[C@@](C)(/C=C/c1ccc(OCCCCN2CCCC2)cc1)CCC=C(C)C [Compound 20] | 1.56 µg/mL (≈ 4.09 µM) | 1.56 µg/mL (≈ 4.09 µM) | – | 1.56 µg/mL (≈ 4.09 µM) | > 100 µg/mL | – | –
14 | C=C[C@@](C)(/C=C/c1ccc(OCCCCN2CCN(C)CC2)cc1)CCC=C(C)C [Compound 21] | 3.12 µg/mL (≈ 7.61 µM) | 3.12 µg/mL (≈ 7.61 µM) | – | 1.56 µg/mL (≈ 3.8 µM) | > 100 µg/mL | – | –
15 | C=C[C@@](C)(/C=C/c1ccc(OCCCCN(Cc2ccccn2)Cc2ccccn2)cc1)CCC=C(C)C [Compound 22] | 1.56 µg/mL (≈ 3.06 µM) | 1.56 µg/mL (≈ 3.06 µM) | – | 3.12 µg/mL (≈ 6.13 µM) | > 100 µg/mL | – | –
16 | C=C[C@@](C)(/C=C/c1ccc(OCCCCN2CCN(CCCN(C)C)CC2)cc1)CCC=C(C)C [Compound 23] | 3.12 µg/mL (≈ 6.49 µM) | 0.78 µg/mL (≈ 1.62 µM) | – | 1.56 µg/mL (≈ 3.24 µM) | 3.12 µg/mL (≈ 6.49 µM) | 0.39 to 3.12 µg/mL (≈ 0.81 to 6.49 µM) | 1.56 to 3.12 µg/mL (≈ 3.24 to 6.49 µM)
17 | C=C[C@@](C)(/C=C/c1ccc(OCCCCN(C)CCCNC)cc1)CCC=C(C)C [Compound 24] | 1.56 µg/mL (≈ 3.78 µM) | 0.78 µg/mL (≈ 1.89 µM) | – | 1.56 µg/mL (≈ 3.78 µM) | 1.56 µg/mL (≈ 3.78 µM) | 0.39 to 3.12 µg/mL (≈ 0.945 to 7.57 µM) | 1.56 to 3.12 µg/mL (≈ 3.78 to 7.57 µM)
18 | C=C[C@@](C)(/C=C/c1ccc(OCCCCNCCSC)cc1)CCC=C(C)C [Compound 25] | 1.56 µg/mL (≈ 3.88 µM) | 0.78 µg/mL (≈ 1.94 µM) | – | 0.78 µg/mL (≈ 1.94 µM) | 50 µg/mL (≈ 124 µM) | 0.39 to 3.12 µg/mL (≈ 0.971 to 7.78 µM) | –
